From the SangsterLogP compilation come the findings set out here.

Usually logP stands for a log measure of how a compound divides between an organic and an aqueous phase. Read a high logP as a more lipophilic compound.

The first data set is described as follows: method code SF-C, from DOI: 10.1021/jm00213a023, PMID: 321779.
Consider `Cc1cc(N)ccc1C(=O)O`, for which the logP was 1.14.

A further data set is described as follows: method code SF, from DOI: 10.1021/jm00213a023, PMID: 321779.
With `CCOc1cc(N)ccc1C(=O)O`, the logP is 0.99.
On the same count and under the same terms, the same measure for `Nc1ccc(C(=O)O)cc1N1C(=O)CSC1=S`: 1.66.

A further data set can be described thus: method code SF-AS, from DOI: 10.1021/jm00213a023, PMID: 321779.
The molecule `CCCCOc1cc(N)ccc1C(=O)O` displayed a logP of 1.24.
Same read-out and setting: the same measure for `CCCCCCCCOc1cc(N)ccc1C(=O)O`: 3.77; for `CCCCCOc1cc(N)ccc1C(=O)O`: 2.38.
On the same count and under the same terms, the same measure for `Nc1ccc(C(=O)O)c(Br)c1`: 1.49.
For the molecule `Nc1ccc(C(=O)O)c([N+](=O)[O-])c1`, the logP is 1.21.
Same read-out and setting: the figure for `CCCCCCCOc1cc(N)ccc1C(=O)O` is 3.37; for `CC(C)CCOc1cc(N)ccc1C(=O)O` it is 2.3; for `Nc1ccc(C(=O)O)cc1Br` it is 2.23.
As for `Nc1ccc(C(=O)O)c(F)c1`, the logP came out at 1.29.
Regarding `Nc1ccc(C(=O)O)cc1Cl`, the logP came to 2.35.
Consider `Nc1ccc(C(=O)O)c(Cl)c1`, for which the logP was 1.33.
The molecule `Nc1ccc(C(=O)O)c(N)c1` had a lipophilicity (logP) of -0.31.
On the same count and under the same terms, the same measure for `Nc1ccc(C(=O)O)cc1F`: 1.41; for `COc1cc(N)ccc1C(=O)O`: 0.45.
`Nc1ccc(C(=O)O)cc1N` came in with a logP of 0.13.
`Nc1ccc(C(=O)O)c(I)c1` gave a logP of 1.65.
On the same count and under the same terms, the same measure for `C=CCOc1cc(N)ccc1C(=O)O`: 1.25; for `Nc1ccc(C(=O)O)cc1O`: 0.5.
For `Nc1ccc(C(=O)O)cc1I`, the log partition coefficient (logP) came to 2.36.
